Laboratory results reported in patent US11246876B2, “Anti-cancer effects of JAK2 inhibitors in combination with thalidomide derivatives and glucocorticoids” (OncoTracker, Inc., priority 2014, dated 2022).

Assays:
[1] = test system: LAGκ-1A tumors; experiment: LAGκ-1A human multiple myeloma xenograft in SCID mice; assay type: in vivo; conditions: ruxolitinib 1.5 mg/kg i.p. twice daily, dexamethasone 1 mg/kg i.p. once daily, lenalidomide 15 mg/kg oral gavage once daily
Procedure: (§1) The combination of the JAK2 inhibitor ruxolitinib with lenalidomide and dexamethasone was tested on human multiple myeloma tumors in vivo. The anti-multiple myeloma effects of ruxolitinib were evaluated with mice bearing either LAGκ-1A (bortezomib- and melphalan-sensitive) or LAGκ-2 (bortezomib- and melphalan-resistant) tumors, both of which were originally derived from bone marrow biopsies from multiple myeloma patients. These tumors closely resemble human multiple myeloma and have been passaged through multiple generations of mice with consistent growth and chemoresistance patterns.
Following intramuscular implantation of LAGκ-1A tumor tissue, mice underwent treatment with vehicle control, ruxolitinib, dexamethasone, lenalidomide, ruxolitinib and dexamethasone, ruxolitinib and lenalidomide, dexamethasone and lenalidomide, or ruxolitinib with lenalidomide and dexamethasone (see FIG. 8A). Ruxolitinib was administered via injection at 1.5 mg/kg i.p., twice daily; dexamethasone was administered at 1 mg/kg i.p., once daily, and lenalidomide was administered via oral gavage at 15 mg/kg, once daily. When ruxolitinib, lenalidomide, or dexamethasone was administered individually, LAGκ-1A tumor growth was not inhibited compared to control.
(§2) Six- to 8-week-old male severe combined immunodeficient (SCID) mice were obtained from the Jackson Laboratory (Bar Harbor, Me., USA) and maintained in a specific pathogen-free area in our animal resources facility. Human myeloma tumors (LAGκ-1A or LAGκ-2) which have been maintained in our laboratory for many years were excised from an anaesthetized tumor containing donor mouse, sectioned into 20-40 mm3 pieces, and surgically implanted into the left superficial gluteal muscle of the anaesthetized naive SCID mice. Recipient mice received weekly injections of anti-asialo GM1 rabbit serum (Wako Bioproducts, Richmond, Va., USA) to further suppress immune activity and allow growth of the human tumor. All animal studies were conducted according to protocols approved by the Institutional Animal Care and Use Committee. […]

[2] = test system: LAGκ-2 tumors; experiment: LAGκ-2 human multiple myeloma xenograft in SCID mice; assay type: in vivo; conditions: dosing as for LAGκ-1A (dexamethasone 1.5 mg/kg for LAGκ-2)
Procedure: as §1
In another experiment, mice received an intramuscular implantation of LAGκ-2 tumor tissue, and then underwent treatment with vehicle control, ruxolitinib, dexamethasone, lenalidomide, ruxolitinib and dexamethasone, ruxolitinib and lenalidomide, dexamethasone and lenalidomide, or ruxolitinib with lenalidomide and dexamethasone, as described above (see FIG. 8B). Similar to the effects on LAGκ-1A tumors, when ruxolitinib, lenalidomide, or dexamethasone was administered individually, LAGκ-2 tumor growth was not inhibited compared to control.
as §2, with “Committee. Animals were anaesthetized with ketamine, xylazine, and isoflurane prior to surgery and were euthanized when tumors reached 2 cm in diameter.” for “Committee.”

Compound	LAGκ-1A tumor growth compared to control [1]	LAGκ-2 tumor growth compared to control [2]
C[C@@H]1C[C@H]2[C@@H]3CCC4=CC(=O)C=C[C@]4(C)[C@@]3(F)[C@@H](O)C[C@]2(C)[C@@]1(O)C(=O)CO [dexamethasone]	not inhibited	not inhibited
Nc1cccc2c1CN(C1CCC(=O)NC1=O)C2=O (stereo not drawn) [lenalidomide]	not inhibited	not inhibited
N#CC[C@H](C1CCCC1)n1cc(-c2ncnc3[nH]ccc23)cn1 [ruxolitinib]	not inhibited	not inhibited
